For data set [1] the following is noted: in vivo; cited from earlier work.
The subject of another data set is SSTR2 and SSTR5. The following applies: cited from earlier work.
Data set [2] in a line: Solubility screening of SOM230 in lipid formulations (visual inspection). In kind it is physicochemical. Here is the method:
Placebo lipid mixture formulations as well as formulations of the single respective lipid alone were prepared in 1 OR vials according to Table 1. The sample size was 6 g. […] The samples were allowed to equilibrate at ambient room temperature; samples with formulation types 1-8 on end-over-end rotation and samples with formulation types 9-12 on magnetic stirring. The flow chart in FIG. 1 describes the sample preparation process. The screening covered the following formulation variables: • Lipid weight ratio (SPC/GDO weight ratio) • Co-solvent nature and concentration • Single lipid formulations • Single solvent (only PG) The samples were studied by visual inspection and the appearance was noted. […] Mixing at ambient room temperature and visual observation continued after addition of more SOM230 drug powder.

For data set [3] the following is noted: cited from earlier work.
A short description of data set [4]: Stability comparison of SOM230 salt forms in lipid formulations, HPLC. Particulars: storage for 2 weeks at 60° C.; ca 30 mg/mL free base. The class given is physicochemical. Here is the method:
The lipid/SOM230(Pm), lipid/SOM230(Cl) and lipid/SOM230(Ac) formulations were divided into two 2R vials which were placed at 60° C. and the remaining amount from the preparation was assayed by HPLC (time point zero).
The samples stored at 60° C. were pulled out after 2 weeks of storage for visual inspection and HPLC analysis.

Consider four molecules from US11672843B2, “Somatostatin receptor agonist formulations” (CAMURUS AB, priority 2012, dated 2023).

Structures can show the parent of a compound that is named as a salt. *1 amine or outer side, *2 acyl side, *3 side chain or, on linkers, in order; H or OH if unused. Where a SMILES comes first, the peptide text is derived from it. Side-chain parts run from the residue outwards. [ ]: non-standard residue; d: D form. The star is where a group is joined. Ethylenediamine = C(CN[*:2])N[*:1]; Hyp = O=C(O)[C@@H]1C[C@@H](O)CN1; Phg = N[C@H](C(=O)O)c1ccccc1; CO = O=C([*:1])[*:2]; Bn = c1ccc(C*)cc1

On to `C[C@@H](O)[C@@H]1NC(=O)[C@H](CCCCN)NC(=O)[C@@H](Cc2c[nH]c3ccccc23)NC(=O)[C@H](Cc2ccccc2)NC(=O)[C@@H](NC(=O)[C@H](N)Cc2ccccc2)CSSC[C@@H](C(=O)N[C@H](CO)[C@@H](C)O)NC1=O` [Octreotide, D-Phe-Cys-Phe-D-Trp-Lys-Thr-Cys-Thr-ol (2-7 disulphide bridge)], for which the Terminal half-life entry in data set [1] was “around 1.7 hours”. For the same molecule, in the data set with SSTR2 and SSTR5, the “Selectivity for somatostatin receptors” value is reported as “high selectivity”.

Regarding `NCCCC[C@@H]1NC(=O)[C@@H](Cc2c[nH]c3ccccc23)NC(=O)[C@H](c2ccccc2)NC(=O)[C@@H]2C[C@@H](OC(=O)NCCN)CN2C(=O)[C@H](Cc2ccccc2)NC(=O)[C@H](Cc2ccc(OCc3ccccc3)cc2)NC1=O` [Pasireotide] (cyclo([Hyp]([CO-Ethylenediamine])[Phg][dW]KY(Bn)F); ring closure inferred), the “Solubility of SOM230 in EtOH” value in data set [2] (ethanol) is listed as < 1 wt %. Moreover, the “Solubility of SOM230 in PG” value in data set [2] (propylene glycol only) is on record as > 1 wt %. Besides, the Half-life in data set [3] (biological half-life) was 2 to 3 h. The “Initial half-life following the peak” value in data set [3] (human, single subcutaneous dose) was 2 to 3 h.

Regarding `NCCCC[C@@H]1NC(=O)[C@@H](Cc2c[nH]c3ccccc23)NC(=O)[C@H](c2ccccc2)NC(=O)[C@@H]2C[C@@H](OC(=O)NCCN)CN2C(=O)[C@H](Cc2ccccc2)NC(=O)[C@H](Cc2ccc(OCc3ccccc3)cc2)NC1=O` [SOM230 hydrochloride] (cyclo([Hyp]([CO-Ethylenediamine])[Phg][dW]KY(Bn)F)), the “Stability of salt form in the lipid formulations (HPLC)” value in data set [4] is on record as “more stable than the acetate salt but not as stable as the pamoate salt”.

As for Pasireotide pamoate [SOM230 pamoate], the “Stability of salt form in the lipid formulations (HPLC)” value in data set [4] is reported as “most stable salt form”.
